# Test results: patent US12036312B2, “Non-aqueous topical compositions comprising a halogenated salicylanilide” (priority 2016, dated 2024)
# Like-named read-outs stand apart in the source and are kept apart here.
# How the values were obtained:
# S. aureus = test: MIC assay according to CLSI criteria, Example 2, S. aureus strains; type: cell-based, Staphylococcus aureus; settings: Staphylococcus aureus
# Method in brief: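 Broth microdilution per CLSI in cation-adjusted Mueller Hinton broth, ~5×10^5 exponential-phase cells per well, aerobic at 37° C for 18 hours; OD600 read at end.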
# P. acnes = type: cell-based, Propionibacterium acnes; settings: for Frequency of mutation/ml: MIC × 4
compound,measurement,setting,value
"C=C[C@]1(C)C[C@@H](OC(=O)CS[C@@H]2C[C@H]3CC[C@@H](C2)N3C)[C@]2(C)[C@H](C)CC[C@]3(CCC(=O)[C@H]32)[C@@H](C)[C@@H]1O [Retapamulin, retapamulin]",MIC,"S. aureus; MRSA, strain MRSA 104",0.03 µg/mL
same,MIC,"S. aureus; MRSA, strain MRSA 105",0.03 µg/mL
same,MIC,"S. aureus; MRSA, strain MRSA 106",0.06 µg/mL
same,MIC,"S. aureus; MRSA, strain MRSA 107",0.06 µg/mL
same,MIC,"S. aureus; MRSA, strain MRSA 108",0.03 µg/mL
same,MIC,"S. aureus; MRSA, strain MRSA 109",0.03 µg/mL
same,MIC,"S. aureus; MRSA, strain MRSA 110",0.03 µg/mL
same,MIC,"S. aureus; MRSA, strain MRSA 111",0.03 µg/mL
same,MIC,"S. aureus; MRSA, strain MRSA 112",0.03 µg/mL
same,MIC,"S. aureus; MRSA, strain MRSA 113",0.03 µg/mL
same,MIC,"S. aureus; MSSA, strain MSSA 01",0.03 µg/mL
same,MIC,"S. aureus; MSSA, strain MSSA 02",0.03 µg/mL
same,MIC,"S. aureus; NEWMAN, strain Newman",0.03 µg/mL
same,MIC,S. aureus; strain 9-1862936,0.03 µg/mL
same,MIC,S. aureus; strain 9-2625962,0.03 µg/mL
same,MIC,S. aureus; strain 9-2642158,0.06 µg/mL
same,MIC,S. aureus; strain 9-2955245,0.06 µg/mL
same,MIC,S. aureus; strain 9-26422166,0.03 µg/mL
same,MIC,S. aureus; strain 000040C,0.03 µg/mL
same,MIC,S. aureus; strain 000041C,0.03 µg/mL
same,MIC,S. aureus; strain 000274T,0.06 µg/mL
same,MIC,S. aureus; strain 114660U,0.06 µg/mL
same,MIC,S. aureus; strain 115015T,0.06 µg/mL
same,MIC,S. aureus; strain 115242C,0.03 µg/mL
same,MIC,S. aureus; strain 115263C,0.03 µg/mL
same,MIC,S. aureus; strain 115268C,0.03 µg/mL
same,MIC,S. aureus; strain 115273C,0.03 µg/mL
same,MIC,S. aureus; strain 115295C,0.03 µg/mL
same,MIC,S. aureus; strain 115303C,0.03 µg/mL
same,MIC,S. aureus; strain 115370U,0.06 µg/mL
same,MIC,S. aureus; strain 115427C,0.03 µg/mL
same,MIC,S. aureus; strain 115445C,0.03 µg/mL
same,MIC,S. aureus; strain 115561C,0.03 µg/mL
same,MIC,S. aureus; strain 115584D,0.06 µg/mL
same,MIC,S. aureus; strain 115628T,0.03 µg/mL
same,MIC,S. aureus; strain 115690C,0.25 µg/mL
same,MIC,S. aureus; strain 115691T,0.03 µg/mL
same,MIC,S. aureus; strain 115740E,0.06 µg/mL
same,MIC,S. aureus; strain 115810E,0.06 µg/mL
same,MIC,S. aureus; strain 115903T,0.03 µg/mL
same,MIC,S. aureus; strain 116122T,0.03 µg/mL
same,MIC,S. aureus; strain E5-1029252,0.03 µg/mL
same,MIC,S. aureus; strain E5-1029558,0.03 µg/mL
same,MIC,S. aureus; strain E5-1030440,0.06 µg/mL
same,MIC,S. aureus; strain E5-1030469,0.03 µg/mL
same,MIC,S. aureus; strain E5-1030472,0.06 µg/mL
same,MIC,S. aureus; strain E5-1030482,0.02 µg/mL
same,MIC,"S. aureus; strain E5-1033076 (first listing, r204)",0.03 µg/mL
same,MIC,"S. aureus; strain E5-1033076 (second listing, r205)",0.03 µg/mL
same,MIC,S. aureus; strain E5-1033088,0.03 µg/mL
same,MIC,S. aureus; strain E5-1033091,0.02 µg/mL
same,MIC,S. aureus; strain E5-1035277,0.03 µg/mL
same,MIC,S. aureus; strain E5-1035284,0.03 µg/mL
same,MIC,S. aureus; strain E5-1035775,0.06 µg/mL
same,MIC,S. aureus; strain E5-1035779,0.03 µg/mL
same,MIC,S. aureus; strain E5-1037958,0.06 µg/mL
same,MIC,S. aureus; strain E5-1037971,0.03 µg/mL
same,MIC,S. aureus; strain E5-1038279,0.03 µg/mL
same,MIC,S. aureus; strain E5-1038286,0.06 µg/mL
same,MIC,S. aureus; strain E5-1038294,0.03 µg/mL
same,MIC,S. aureus; strain E5-1039684,0.06 µg/mL
same,MIC,S. aureus; strain E5-1039697,0.06 µg/mL
same,MIC,S. aureus; strain E5-1041977,0.03 µg/mL
same,MIC,S. aureus; strain E5-1041979,0.03 µg/mL
same,MIC,S. aureus; strain E5-1041980,0.03 µg/mL
same,MIC,S. aureus; strain E5-1041987,0.03 µg/mL
same,MIC,S. aureus; strain E5-1043184,0.03 µg/mL
same,MIC,S. aureus; strain E5-1043668,0.06 µg/mL
same,MIC,S. aureus; strain E5-1045179,0.06 µg/mL
same,MIC,S. aureus; strain E5-1046019,0.03 µg/mL
same,MIC,S. aureus; strain E5-1046020,0.06 µg/mL
same,MIC,S. aureus; strain E5-1046039,0.06 µg/mL
same,MIC,S. aureus; strain E5-1046070,0.03 µg/mL
same,MIC,S. aureus; strain E5-1046074,0.06 µg/mL
same,MIC,S. aureus; strain E5-1046085,0.06 µg/mL
same,MIC,S. aureus; strain E5-1046096,0.06 µg/mL
same,MIC,S. aureus; strain E5-1046296,0.03 µg/mL
same,MIC,S. aureus; strain E5-1046297,0.06 µg/mL
same,MIC,S. aureus; strain E5-1046298,0.03 µg/mL
same,MIC,S. aureus; strain E5-1046723,0.06 µg/mL
same,MIC,S. aureus; strain E5-1047585,0.03 µg/mL
same,MIC,S. aureus; strain E5-1047606,0.03 µg/mL
same,MIC,S. aureus; strain E5-1047924,0.03 µg/mL
same,MIC,S. aureus; strain E5-1048204,0.03 µg/mL
same,MIC,S. aureus; strain E5-1048428,0.06 µg/mL
same,MIC,S. aureus; strain E5-1048654,0.06 µg/mL
same,MIC,S. aureus; strain E5-1048670,0.06 µg/mL
same,MIC,S. aureus; strain EEFIC 01,0.03 µg/mL
same,MIC,S. aureus; strain EEFIC 02,0.03 µg/mL
same,MIC,S. aureus; strain K000772,0.06 µg/mL
same,MIC,S. aureus; strain K000796,0.03 µg/mL
same,MIC,S. aureus; strain K000863,0.03 µg/mL
same,MIC,S. aureus; strain K000864,0.03 µg/mL
same,MIC,S. aureus; strain K000866,0.03 µg/mL
same,MIC,S. aureus; strain K115498,0.03 µg/mL
same,MIC,S. aureus; strain K115688,0.03 µg/mL
same,MIC,S. aureus; strain K115689,0.03 µg/mL
same,MIC,S. aureus; strain R000019,0.06 µg/mL
same,MIC,S. aureus; strain R000020,0.03 µg/mL
same,MIC,S. aureus; strain R000024,0.06 µg/mL
same,MIC,S. aureus; strain U115579,0.06 µg/mL
same,frequency of mutation of resistance,P. acnes; P. acnes,~1×10^−8
same,Frequency of mutation/ml,P. acnes; P. acnes strain 998,2.17e-08 mL⁻¹
same,Frequency of mutation/ml,P. acnes; P. acnes strain 1044,1.09e-08 mL⁻¹
same,Frequency of mutation/ml,P. acnes; P. acnes strain CSS3023,1.46e-08 mL⁻¹
same,Frequency of mutation/ml,P. acnes; P. acnes strain CSS3288,1.25e-08 mL⁻¹
